Reference: patent US8835484B2, “Naphthocyanines for use as contrast agents” (Alamedics GmbH & Co. KG, priority 2010, dated 2014)
Structures can show the parent of a compound that is named as a salt.

Columns and labels:
[1] = Solid cyanine dye stability comparison; type: physicochemical; details: storage
Description: Decomposition of the solid dye results in a red coloration of the solid and the solution. Carboxylic acid esters, especially methyl ester, are particularly sensitive in addition to the bromides.

lens capsule = assay: Dye tests on porcine eyes (lens capsule staining); design: key: +++: visually assessed very strong coloration; ++: good coloration; +: satisfactory coloration; −: weak or absent coloration; details: incubated, rinsed after one minute
Description: For the dye test, in each case 5 mg dye was dissolved in 500 μL ethanol and diluted to 2 mL with BSS Plus solution as the stock solution, and then correspondingly further diluted. As an alternative, one can prepare stock solutions of the dye by dissolving, for example, 5 mg dye in 1 mL distilled water, adding 7 mL BSS solution and then combining with 1 mL NaCl solution having an osmolality of 620 (approximately 2%) in order to restore the original osmolality of the BSS solution (308). This stock solution can be correspondingly further diluted with BSS solution as required. Enucleated porcine eyes were used having a post mortem time period of a few hours. To dye the lens capsule, the cornea was first removed. Thereafter, the iris was resected and the capsular support was severed. The lens with intact lens capsule was removed and placed in a bowl filled with BSS. The lenses were thereafter incubated with the dyes according to the invention at various concentrations and then rinsed after one minute. The dye pattern was photographically documented, whereby the coloration was assessed without additional illumination, and fluorescence was assessed with illumination (Xenon lamp, halogen lamp with typical endoillumination source and fiber optics). The lens capsule is a very good model for dyeing due to the fact that it is a basal membrane, as is the ILM of the retina. Both structures are important target structures in eye surgery.

[2] = Fluorescence quantum yield; type: physicochemical; details: CHCl3; Reference: S-13 with Φ=1.00
Description: IR spectra: Perkin Elmer Spectrum BX II, using a diamond anvil cell; UV/Vis spectra: Varian Cary 5000 and Bruins Omega 20; fluorescence spectra: Varian Eclispe; NMR spectroscopy: Varian Vnmrs 600 (600 MHz, 400 MHz, 200 MHz); mass spectrometry: Thermo Finnigan LQT FT.

retina = details: cited from earlier work
[3] = test system: internal limiting membrane (ILM); details: literature experiments; cited from earlier work
[4] = Solid cyanine dye stability comparison; type: physicochemical; details: after work-up, forming a yellow color

Compound	Stability [1]	Fluorescence quantum yield [2]	melting point	coloration of lens capsule (lens capsule; dye concentration 0.5%)	coloration of lens capsule (lens capsule; dye concentration 1.0)	also measured
CC1(C)C(/C=C/C=C2\N(CCCCS(=O)(=O)O)c3ccc4ccccc4c3C2(C)C)=[N+](CCCCS(=O)(=O)[O-])c2ccc3ccccc3c21 [Dye 3t, 3,3′-Di-(4-sulfobutyl)-1,1,1′,1′-tetramethyl-1H-dibenzo[e]indocarbocyanine bromide]	No decomposition after 3 years	0.32		+++		coloration of lens capsule (lens capsule; dye concentration 0.0025%): −; coloration of lens capsule (lens capsule; dye concentration 0.025%): +; coloration of lens capsule (lens capsule; dye concentration 0.25%): ++
3,3′-Di-(5-brompentyl)-1,1,1′,1′-tetramethyl-1H-disulfobenzo[e]indocarbocyanine bromide [Dye 6h]	Decomposition after a few days	0.19		decomposed	decomposed	
CC1(C)C(/C=C/C=C/C=C/C=C2\N(CCCCS(=O)(=O)O)c3ccc4ccccc4c3C2(C)C)=[N+](CCCCS(=O)(=O)[O-])c2ccc3ccccc3c21 [ICG, indocyanine green]						toxic effect on the retina (retina): toxic effect on the retina which is difficult to control; staining of the ILM [3]: Selective staining
3,3′-Di-(10-bromodecyl)-1,1,1′,1′-tetramethyl-1H-disulfobenzo[e]indocarbocyanine bromide [Dye 6i]	Decomposition after 2 days	0.13		decomposed	decomposed	
CC1(C)C(/C=C/C=C2\N(CCC(=O)O)c3ccc4ccccc4c3C2(C)C)=[N+](CCC(=O)O)c2ccc3ccccc3c21.[Br-] (hydrate or solvate) [Dye 3a, 3,3′-Di-(2-carboxyethyl)-1,1,1′,1′-tetramethyl-1H-dibenzo[e]indocarbocyanine bromide]			199 °C			
CC1(C)C(=CC=CC2=[N+](CCCCCCCCCCS(=O)(=O)O)c3ccc4ccccc4c3C2(C)C)N(CCCCCCCCCCS(=O)(=O)O)c2ccc3ccccc3c21.[Br-] [Dye 3v, 3,3′-Di-(10-sulfodecyl)-1,1,1′,1′-tetramethyl-1H-dibenzo[e]indocarbocyanine bromide]	No decomposition after 4 months	0.14		−	−	
3,3′-Di-(5-bromodecyl)-1,1,1′,1′-tetramethyl-1H-dibenzo[e]indocarbocyanine bromide [Dye 3x]	No decomposition after 4 months	0.10				
CC1(C)C(/C=C/C=C2\N(CCCCS(=O)(=O)[O-])c3ccc4c(S(=O)(=O)O)cccc4c3C2(C)C)=[N+](CCCCS(=O)(=O)O)c2ccc3c(S(=O)(=O)O)cccc3c21 [Dye 6a, 3,3′-Di-(4-sulfobutyl)-1,1,1′,1′-tetramethyl-1H-disulfobenzo[e]indocarbocyanine bromide]	No decomposition after 4 months	0.33		+++	+++	
CC1(C)C(=CC=CC2=[N+](CCCCCS(=O)(=O)O)c3ccc4ccccc4c3C2(C)C)N(CCCCCS(=O)(=O)O)c2ccc3ccccc3c21.[Br-] [Dye 3u, 3,3′-Di-(5-sulfopentyl)-1,1,1′,1′-tetramethyl-1H-dibenzo[e]indocarbocyanine bromide]	No decomposition after 4 months	0.13		−	+	
CC1(C)C(/C=C/C=C2\N(CCCCS(=O)(=O)O)c3ccc4ccccc4c3C2(C)C)=[N+](CCCCS(=O)(=O)[O-])c2ccc3ccccc3c21 (as salt: bromide) [Dye 3t, 3,3′-Di-(4-sulfobutyl)-1,1,1′,1′-tetramethyl-1H-dibenzo[e]indocarbocyanine bromide]			> 250 °C			
CC1(C)C(/C=C/C=C2\N(CCCCS(=O)(=O)[O-])c3ccc4c(S(=O)(=O)O)cccc4c3C2(C)C)=[N+](CCCCS(=O)(=O)O)c2ccc3c(S(=O)(=O)O)cccc3c21 (as salt: bromide) [Dye 6a, 3,3′-Di-(4-sulfobutyl)-1,1,1′,1′-tetramethyl-1H-disulfobenzo[e]indocarbocyanine bromide]			> 150 °C			
CC1(C)C(/C=C/C=C2\N(CCC(=O)O)c3ccc4c(S(=O)(=O)O)cccc4c3C2(C)C)=[N+](CCC(=O)O)c2ccc3c(S(=O)(=O)O)cccc3c21.[Br-] [Dye 6b, 3,3′-Di-(2-carboxyethyl)-1,1,1′,1′-tetramethyl-1H-disulfobenzo[e]indocarbocyanine bromide]	Decomposition after a few days	0.21	> 180 °C (dec.)	+++	+++	

Continued, in another order:

Stability [1]	Fluorescence quantum yield [2]	melting point	Compound	coloration of lens capsule (lens capsule; dye concentration 0.5%)	coloration of lens capsule (lens capsule; dye concentration 1.0)	also measured
Decomposition after 2 months	0.18	> 150 °C (dec.)	CCOC(=O)CCN1/C(=C\C=C\C2=[N+](CCC(=O)OCC)c3ccc4c(S(=O)(=O)O)cccc4c3C2(C)C)C(C)(C)c2c1ccc1c(S(=O)(=O)O)cccc21.[Br-] [Dye 6e, 3,3′-Di-(2-ethoxycarbonylethyl)-1,1,1′,1′-tetramethyl-1H-disulfobenzo[e]indocarbocyanine bromide]	decomposed	decomposed	
	0.20	> 150 °C (dec.)	CCCCCN1/C(=C\C=C\C2=[N+](CCCCC)c3ccc4ccccc4c3C2(C)C)C(C)(C)c2c1ccc1ccccc21.[Br-] [Dye 6j, 3,3′-Di-(pentyl)-1,1,1′,1′-tetramethyl-1H-dibenzo[e]indocarbocyanine bromide]			
Decomposition after 2 months	0.11	> 150 °C (dec.)	CCOC(=O)CCCCN1/C(=C\C=C\C2=[N+](CCCCC(=O)OCC)c3ccc4c(S(=O)(=O)O)cccc4c3C2(C)C)C(C)(C)c2c1ccc1c(S(=O)(=O)O)cccc21.[Br-] [Dye 6f, 3,3′-Di-(4-ethoxycarbonylbutyl)-1,1,1′,1′-tetramethyl-1H-disulfobenzo[e]indocarbocyanine bromide]	decomposed	decomposed	decomposition of the dye after preparation [4]: decomposes as soon as after one day
No decomposition after 3 months	0.22	> 150 °C (dec.)	CCOC(=O)CCCCCN1/C(=C\C=C\C2=[N+](CCCCCC(=O)OCC)c3ccc4c(S(=O)(=O)O)cccc4c3C2(C)C)C(C)(C)c2c1ccc1c(S(=O)(=O)O)cccc21.[Br-] [Dye 6g, 3,3′-Di-(5-ethoxycarbonylpentyl)-1,1,1′,1′-tetramethyl-1H-disulfobenzo[e]indocarbocyanine bromide]	++	++	
No decomposition after 3 months	0.31	> 150 °C (dec.)	CC1(C)C(/C=C/C=C2\N(CCCCCCCCCCC(=O)O)c3ccc4c(S(=O)(=O)O)cccc4c3C2(C)C)=[N+](CCCCCCCCCCC(=O)O)c2ccc3c(S(=O)(=O)O)cccc3c21.[Br-] [Dye 6c, 3,3′-Di-(10-carboxydecyl)-1,1,1′,1′-tetramethyl-1H-disulfobenzo[e]indocarbocyanine bromide]	++	++	
Decomposition after 1 month	0.25	> 150 °C (dec.)	COC(=O)CCCCCCCCCCN1/C(=C\C=C\C2=[N+](CCCCCCCCCCC(=O)OC)c3ccc4c(S(=O)(=O)O)cccc4c3C2(C)C)C(C)(C)c2c1ccc1c(S(=O)(=O)O)cccc21.[Br-] [Dye 6d, 3,3′-Di-(10-methoxycarbonyldecyl)-1,1,1′,1′-tetramethyl-1H-disulfobenzo[e]indocarbocyanine bromide]	decomposed	decomposed	
